Nine molecules from PMC9437215, “Synthesis and antibacterial activity evaluation of N (7) position-modified balofloxacins” (Frontiers in Chemistry, 2022) can be followed below.

Converted amounts (≈) assume the structure as drawn.

The subject of one series is E. coli. In words: MIC and MBC determinations in vitro, E. coli. The format is cell-based. To be noted: Escherichia coli, E. coli clinical isolate; for MIC: 24 h culture; for MBC: solid medium 24 h. Here is the method: (§1) The three strains of MRSA, P. aeruginosa, and E. coli used in this experiment were from clinical isolates, which were provided by the People’s Liberation Army 304 Hospital.
(§2) To evaluate the antibacterial activities of newly synthesized N (7) position modified fluoroquinolones, the minimum inhibitory (MIC) and bactericidal (MBC) concentrations of these compounds toward bacteria were measured.

The test system of a further series is P. aeruginosa. In words: MIC and MBC determinations in vitro, P. aeruginosa. The format is cell-based. As to conditions: Pseudomonas aeruginosa, P. aeruginosa clinical isolate; for MIC: 24 h culture, read-out: MIC; for MBC: solid medium 24 h, read-out: MBC. Here is the method:
as §1, §2

A further series deals with MRSA. The series is described as follows: MIC and MBC determinations in vitro, MRSA. The format is cell-based. To be noted: Staphylococcus aureus, MRSA, 24 h, MRSA clinical isolate; for MIC: 24 h culture, read-out: MIC; for MBC: solid medium 24 h, read-out: MBC. Here is the method: as §1, §2
The test system of series [1] is MRSA, P. aeruginosa, and E. coli. In words: MIC and MBC values stated over the three strains together. The format is cell-based. As to conditions: range over MIC and MBC and the three strains; read-out: MIC and MBC values. Here is the method: as §1, §2

In general, MIC refers to the lowest concentration found to suppress growth. Usually MBC stands for the smallest concentration meeting the test's criterion for killing. One may read the melting point as the temperature of the solid-liquid transition. `COc1c(N2CCCC(N(C)C(=O)C3CC3)C2)c(F)cc2c(=O)c(C(=O)O)cn(C3CC3)c12` (stereo not shown) [Compound 11-e, 1-Cyclopropyl-6-fluoro-8-methoxy-7-(3-(N-methylcyclopropanecarboxamido)piperidin-1-yl)-4-oxo-1,4-dihydroquinoline-3-carboxylic acid] gave a melting point of 104.6 to 106.5 °C. In addition, in the series with E. coli, the minimal inhibitory concentration (MIC) amounted to 10 µg/mL (≈ 21.9 µM) and the MBC came to 20 µg/mL (≈ 43.7 µM). Also, in the series with P. aeruginosa, the MIC worked out at 0.078 µg/mL (≈ 0.17 µM) and the MBC was found to be 0.156 µg/mL (≈ 0.341 µM). In addition, in the series with MRSA, the MIC was determined as 0.039 µg/mL (≈ 0.0852 µM) and the MBC came out at 0.078 µg/mL (≈ 0.17 µM).
Turning to `COc1c(N2CCCC(N(C)C(=O)C3CCCC3)C2)c(F)cc2c(=O)c(C(=O)O)cn(C3CC3)c12` (stereo not shown) [Compound 16-e, 1-Cyclopropyl-6-fluoro-8-methoxy-7-(3-(N-methylcyclopentanecarboxamido)piperidin-1-yl)-4-oxo-1,4-dihydroquinoline-3-carboxylic acid], the melting point lay within 105.1 to 106.4 °C. Further, in the series with E. coli, the MIC was 20 µg/mL (≈ 41.2 µM) and the MBC turned out to be 40 µg/mL (≈ 82.4 µM). For the same molecule, in the series on P. aeruginosa, the MIC was 0.313 µg/mL (≈ 0.645 µM) and the MBC came out at 0.625 µg/mL (≈ 1.29 µM). Besides, in the series with MRSA, the MIC turned out to be 0.313 µg/mL (≈ 0.645 µM) and the MBC was found to be 0.625 µg/mL (≈ 1.29 µM).
In turn, `COc1c(N2CCCC(N(C)C(=O)c3ccco3)C2)c(F)cc2c(=O)c(C(=O)O)cn(C3CC3)c12` (stereo not shown) [Compound 13-e, 1-Cyclopropyl-6-fluoro-8-methoxy-7-(3-(N-methylfuran-2-carboxamido)piperidin-1-yl)-4-oxo-1,4-dihydroquinoline-3-carboxylic acid] had a melting point of 167.5 to 168.7 °C. Further, in the series with E. coli, the minimum inhibitory concentration (MIC) was determined as 10 µg/mL (≈ 20.7 µM) and the MBC was 20 µg/mL (≈ 41.4 µM). For the same molecule, in the series on P. aeruginosa, the MIC came to 0.078 µg/mL (≈ 0.161 µM) and the MBC came to 0.156 µg/mL (≈ 0.323 µM). Moreover, in the series with MRSA, the MIC amounted to 0.078 µg/mL (≈ 0.161 µM) and the MBC was determined as 0.156 µg/mL (≈ 0.323 µM).
With `COc1c(N2CCCC(N(C)C(=O)C3CCCO3)C2)c(F)cc2c(=O)c(C(=O)O)cn(C3CC3)c12` (stereo not shown) [Compound 14-e, 1-Cyclopropyl-6-fluoro-8-methoxy-7-(3-(N-methyltetrahydrofuran-2-carboxamido)piperidin-1-yl)-4-oxo-1,4-dihydroquinoline-3-carboxylic acid], the melting point is 140.2 to 141.2 °C. In the series with E. coli, inhibition of growth (MIC) required 20 µg/mL (≈ 41 µM) and the MBC amounted to 20 µg/mL (≈ 41 µM). Also, in the series with P. aeruginosa, the MIC is 0.156 µg/mL (≈ 0.32 µM) and the minimum bactericidal concentration (MBC) turned out to be 0.313 µg/mL (≈ 0.642 µM). Moreover, in the series with MRSA, the MIC is 0.078 µg/mL (≈ 0.16 µM) and the MBC turned out to be 0.156 µg/mL (≈ 0.32 µM).
Molecule `COc1c(N2CCCC(N(C)C(=O)CC#N)C2)c(F)cc2c(=O)c(C(=O)O)cn(C3CC3)c12` (stereo not shown) [Compound 22-e, 7-(3-(2-Cyano-N-methylacetamido)piperidin-1-yl)-1-cyclopropyl-6-fluoro-8-methoxy-4-oxo-1,4-dihydroquinoline-3-carboxylic acid] had a melting point of 184.8 to 186.2 °C. In the series with E. coli, this molecule returned an MIC of 0.78 µg/mL (≈ 1.71 µM) and an MBC of 1.56 µg/mL (≈ 3.42 µM). For the same molecule, in the series with P. aeruginosa, the minimal inhibitory concentration (MIC) was found to be 0.78 µg/mL (≈ 1.71 µM) and the MBC was 1.56 µg/mL (≈ 3.42 µM). Further, in the series with MRSA, the minimal inhibitory concentration (MIC) stood at 0.39 µg/mL (≈ 0.854 µM) and the MBC stood at 0.78 µg/mL (≈ 1.71 µM).
In the case of `CCCCCCCCCC(=O)N(C)C1CCCN(c2c(F)cc3c(=O)c(C(=O)O)cn(C4CC4)c3c2OC)C1` (stereo not shown) [Compound 10-e, 1-Cyclopropyl-6-fluoro-8-methoxy-7-(3-(N-methyldecanamido)piperidin-1-yl)-4-oxo-1,4-dihydroquinoline-3-carboxylic acid], the melting point fell in the range of 65.2 to 68.1 °C. In the series with E. coli, this molecule displayed an MIC greater than 40 µg/mL and a minimum bactericidal concentration (MBC) greater than 40 µg/mL. In addition, in the series with P. aeruginosa, the MIC is 5 µg/mL (≈ 9.2 µM) and the MBC was found to be 20 µg/mL (≈ 36.8 µM). Further, in the series with MRSA, the MIC is 5 µg/mL (≈ 9.2 µM) and the MBC amounted to 20 µg/mL (≈ 36.8 µM).
For `C[C@H]1COc2c(C3(N)CC3)c(F)cc3c(=O)c(C(=O)O)cn1c23` [Compound 1g, pazufloxacin, reference compound], the figures for the MIC in the series with E. coli, in the series with P. aeruginosa and in the series with MRSA were 0.156 µg/mL (≈ 0.49 µM), 0.313 µg/mL (≈ 0.983 µM) and 0.156 µg/mL (≈ 0.49 µM), respectively. Besides, the MBC was 0.313 µg/mL (≈ 0.983 µM) in the series on E. coli, 0.156 to 0.625 µg/mL (≈ 0.49 to 1.96 µM) in series [1], 0.625 µg/mL (≈ 1.96 µM) with P. aeruginosa and 0.313 µg/mL (≈ 0.983 µM) in the series with MRSA.
`CCCCCCCC(=O)N(C)C1CCCN(c2c(F)cc3c(=O)c(C(=O)O)cn(C4CC4)c3c2OC)C1` (stereo not shown) [Compound 8-e, 1-Cyclopropyl-6-fluoro-8-methoxy-7-(3-(N-methyloctanamido)piperidin-1-yl)-4-oxo-1,4-dihydroquinoline-3-carboxylic acid] gave a melting point of 68.2 to 70 °C. In the series with E. coli, this molecule gave an MIC greater than 40 µg/mL and an MBC greater than 40 µg/mL. For the same molecule, in the series on P. aeruginosa, the MIC came to 1.25 µg/mL (≈ 2.42 µM) and the MBC stood at 5 µg/mL (≈ 9.7 µM). Moreover, in the series on MRSA, the MIC is 1.25 µg/mL (≈ 2.42 µM) and the minimum bactericidal concentration (MBC) turned out to be 5 µg/mL (≈ 9.7 µM).
`CC(=O)NC1(c2c(F)cc3c(=O)c(C(=O)O)cn4c3c2OCC4C)CC1` (stereo not shown) [Compound 2-g, 10-(1-Acetamidocyclopropyl)-9-fluoro-3-methyl-7-oxo-2,3-dihydro-7H-[1,4]oxazino[2,3,4-ij]quinoline-6-carboxylic acid] showed a melting point of 273.1 to 274.1 °C. Also, in the series on E. coli, it took 25 µg/mL (≈ 69.4 µM) to inhibit growth (MIC) and the MBC is 50 µg/mL (≈ 139 µM). Also, the MBC in series [1] was 25 to 50 µg/mL (≈ 69.4 to 139 µM). Also, in the series with P. aeruginosa, the MIC turned out to be 25 µg/mL (≈ 69.4 µM) and the MBC was 50 µg/mL (≈ 139 µM). In the series on MRSA, the MIC came out at 25 µg/mL (≈ 69.4 µM) and the MBC turned out to be 50 µg/mL (≈ 139 µM).
